For one test, the system named is 3T3-L1-WAT adipocytes. In words: SeaHorse oxygen consumption rate in fully differentiated 3T3-L1-WAT adipocytes. It is filed as cell-based, mouse. The note with it: 50 μM biliverdin, 50 μM WY 14,463, 10 μM rosiglitazone. As to the method: To compare the effects of bilirubin on the activation of PPARα or PPARγ on mitochondrial function, a SeaHorse XFe96 Analyzer was used to measure oxygen consumption rate (OCR) in fully differentiated 3T3-L1-WAT adipocytes treated with 50 μM biliverdin, 50 μM WY 14,463 (PPARα agonist), or 10 μM rosiglitazone (PPARγ-agonist). […]. Rosiglitazone, but not biliverdin or WY 14,643, enhanced the coupling efficiency. None of the ligands affected non-mitochondrial respiration, basal respiration, or proton leak.
Cellular respiration was quantified using the Seahorse Extracellular Flux Analyzer XF-96 (Agilent Technologies, Cedar Creek, TX). The Seahorse XF Cell Mito Stress Test Kit (Agilent Technologies, Cat #103015-100) was used for analysis of cellular respiration. BAT or 3T3-L1 cells were seeded on a XF96 cell culture microplate (Agilent 101085-004) at 20,000 cells per well. Cells were then differentiated as previously described for 9 days. […] The oxygen consumption rate (OCR) and extracellular acidification rate (ECAR) were used to quantify the cellular energy phenotype of the cells. After treatment, cells were washed twice with Seahorse Bioscience Assay Media (XF Base media with 25 mM Glucose, 2 mM […], and 1 mM Sodium Pyruvate) then incubated with the buffer for 1 hour in a non-CO2 incubator. The Seahorse Cartridge ports were loaded with […] of assay media with […] FCCP, 10 μM Oligomycin, 5 μM Rotenone/Antimycin A in different ports an hour before assay. […] The raw data and graphs were supplied as an Excel File or Graphpad Prizm file.

Test [1] concerns BAT cells. In words: SeaHorse analysis in murine BAT cell line (wild-type). It is filed as cell-based.
Test [2] deals with BAT cells. Description: Real-time PCR in differentiated BAT cells. The format is cell-based, murine. As to conditions: 50 μM biliverdin, 50 μM WY14,463, 10 μM rosiglitazone, 24 hrs. On the procedure:
Total RNA was extracted from mouse tissues using the miRNeasy Mini Kit (Qiagen). Total RNA was read on a NanoDrop 2000 spectrophotometer (Thermo Fisher Scientific, Wilmington, DE) and cDNA was synthesized using High Capacity cDNA Reverse Transcription Kit (Applied Biosystems). PCR amplification of the cDNA was performed by quantitative real-time PCR using TrueAmp SYBR Green qPCR SuperMix (Advance Bioscience). The thermocycling protocol consisted of 3 min at 95° C., 48 cycles of 15 sec at 95° C., 30 sec at 60° C., and based on primer size 0 to 30 sec at 72° C. and finished with a melting curve ranging from 60-95° C. to allow distinction of specific products. Normalization was performed in separate reactions with primers to 36B4.
(In qPCR the cycle at which signal appears reflects the starting amount.)

Test [3] has as its system BAT PPARα CRISPR KO cells. Description: Seahorse analysis in BAT PPARα CRISPR KO cells. The format is cell-based, mouse. The note with it: both KO clones, 24 hours. An excerpt: To further delineate the actions of bilirubin on BAT, CRISPR technology was developed to knockout (KO) PPARα and establish two null clone lines. […]. The function of the ligands was lost in both clones for the BAT PPARα CRISPR KO cells.
CRISPR-Technology was employed in BAT as previously described to excise part of Exon 3 and Exon 4 of the PPARα gene to create a PPARα Knockout BAT cell line. Two sgRNAs with high efficacy and low off-target scores were identified on Exon 3 and 4 of the mouse PPARα gene using Benchling online software. The two Cas9 targets were separated by 9,465 bases. All of the off-targets to our PPARα sgRNA had 4 mismatches, of which at least 1-2 were within the seed region (up to 12 bases proximal to the protospacer adjacent motif (PAM) site) which reduces the likelihood of Cas9 off-target effects. The multiplex sgRNAs were generated using the PrecisionX Multiplex gRNA Cloning Kit according to manufacturer instructions. […] After 36 h of transfection, cells with the top 10% level of fluorescence were single-sorted into 96-well plates by fluorescent activated cell sorting. […]
Cellular respiration was quantified using the Seahorse Extracellular Flux Analyzer XF-96 (Agilent Technologies, Cedar Creek, TX). […] The oxygen consumption rate (OCR) and extracellular acidification rate (ECAR) were used to quantify the cellular energy phenotype of the cells. […]

For a further test, the target named is T1, human PPARα-LBD (Homo sapiens, UniProt Q07869).
T1 construct: purchased Invitrogen PV4692
T1 sequence (Q07869 239-466 limits assumed): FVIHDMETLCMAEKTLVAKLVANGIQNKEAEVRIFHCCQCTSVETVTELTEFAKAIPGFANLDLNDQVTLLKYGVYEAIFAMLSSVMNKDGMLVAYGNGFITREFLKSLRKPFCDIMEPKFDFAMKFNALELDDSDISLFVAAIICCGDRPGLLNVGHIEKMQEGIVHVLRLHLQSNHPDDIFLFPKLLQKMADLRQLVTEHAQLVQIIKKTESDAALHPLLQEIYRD
Description: MARCONI / PamStation nuclear hormone receptor coregulator assay. It is filed as binding. As to conditions: 50 μM. On the procedure:
The molecular determinants that dictate specificity and selectivity in PPARα-coregulator interactions are largely unknown. […] To determine if bilirubin binds to the ligand binding domain (LBD) of PPARα to cause recruitment of a specific set of co-regulator proteins, the Microarray Assay for Realtime Coregulator-Nuclear Receptor Interaction (MARCONI) technology was used.
Incubation was performed at 37° C. for 5 minutes in 1.5 ml microtubes prior to placement on respective array for analysis in a PamStation96 (Pamgene International). PPARα binding was reflected via fluorescent signals recorded through the Pamstation96. The signals were transformed into tiff images and binding capacity was quantified using BioNavigator software (Pamgene International).

Each structure is given as a SMILES string. Entries after “also recorded” stand apart in the source; their conditions may differ.

On to `Cc1cccc(Nc2cc(Cl)nc(SCC(=O)O)n2)c1C` [WY 14,643, WY-14,643], for which, in the test on 3T3-L1-WAT adipocytes, the ATP production entry was “not observed” and the “mitochondrial OCR for maximum respiration” value was “significantly increased”. Further, the proton leak result in the test with BAT cells [1] (BAT cells) is recorded as “stimulated”. In the test with BAT cells [1] (WT BAT cells, 24 hours), the ATP production entry is reported as “increased; also recorded: stimulated”, the “basal respiration (OCR)” value is given as “increased” and the “maximum respiration (OCR)” value is “increased; also recorded: significantly higher”. In addition, in the test with BAT cells [2], the “Adrb3 mRNA” value is recorded as “significant increase” and the “Ucp1 mRNA” value is “significant increase”. The “function of the ligands on mitochondrial function (OCR)” value in test [3] is on record as “lost”.
On to `C=CC1=C(C)/C(=C/c2[nH]c(Cc3[nH]c(/C=C4\NC(=O)C(C)=C4C=C)c(C)c3CCC(=O)O)c(CCC(=O)O)c2C)NC1=O` [bilirubin, Bilirubin], for which the “binding to the human PPARα-LBD” value on human PPARα-LBD is recorded as “direct binding”. Besides, the “binding of the human PPARα LBD to coregulator motifs” value at human PPARα-LBD (154 coregulator motifs) is “mitigate binding”. Besides, at human PPARα-LBD (subtracted from the vehicle), the “coregulators with reduced interactions with the human PPARα LBD” value is “PRGR (LXXL 102-124), PRGC1 (LXXL 134-154), and PELP1 (LXXL 446-468)”; the “highest interacting coregulators recruited to PPARα-LBD” value is “MAPE (LXXL 249-271), WIPII (LXXL 313-335), CNOT1 (LXXL 2083-2105), PELP1 (LXXL 571-593), and others”.

Values taken from patent US20250281460A1, “PEGYLATED BILIRUBIN FOR THE TREATMENT OF […], OBESITY, FATTY LIVER DISEASE, CARDIOVASCULAR DISEASES AND TYPE II DIABETES” (The University of Toledo, priority 2019, published 2025).
